Patent publication US11530181B2, “IL-6 inhibitors and methods of treatment” (University of Florida Research Foundation, Incorporated, priority 2018, dated 2022)

Key:
[1] = tested on: IL-4 induced STAT6 phosphorylation; experiment: Western blot, IL-4 induced STAT6 phosphorylation in MCF7; format: cell-based, human; conditions: MCF7, pre-treatment 2, 3 and 4 hours
Method: (§1) Cells were harvested and lysed in cold radioimmunoprecipitation assay (RIPA) lysis buffer containing proteasome inhibitor cocktail and phosphatase inhibitor cocktail. The protein concentrations were determined using the BCA Protein Assay kit. After adding the loading buffer and boiling at 95° C. for 10 minutes, equivalent amounts of proteins were loaded on and separated by SDS-PAGE, and then were transferred to PVDF membranes. Membranes were probed with primary antibodies (1:1000) against phospho-STAT3 (Tyr705), STAT3, phospho-STAT1 (Tyr701), STAT1, phospho-STAT6 (Tyr 641), STAT6, and GAPDH, respectively, and horseradish peroxidase (HRP)-conjugated secondary antibody (1:10000) (Cell Signaling Technology, Beverly, Mass.). Membranes were analyzed using Enhanced Chemiluminescence Plus reagents and either scanned with the Storm Scanner (Amersham Pharmacia Biotech, Inc., Piscataway, N.J.) or imaged with ChemiDoc MP imaging system (Bio-Rad, Hercules, Calif.). […] The cells were harvested after 30 minutes and analyzed by Western blot.
(§2) MCF7 breast cancer cells were seeded in 10 cm plates (1 million cells per plate) and allowed to adhere overnight. […] The cells were harvested after 30 minutes and analyzed by western blotting.

[2] = tested on: INF-γ induced STAT1 phosphorylation; experiment: Western blot, INF-γ induced STAT1 phosphorylation in MCF7; format: cell-based, human; conditions: MCF7, pre-treatment 2, 3 and 4 hours
Method: as §1, §2

[3] = tested on: LIF induced STAT3 phosphorylation; experiment: Western blot, LIF induced STAT3 phosphorylation in MCF7; format: cell-based, human
Method: as §1, §2

[4] = tested on: OSM induced STAT3 phosphorylation; experiment: Western blot, OSM induced STAT3 phosphorylation in MCF7; format: cell-based, human
Method: as §1, §2

[5] = tested on: tert-immortalized human mammaryepithelial cells (HMEC-tert); experiment: Cell viability of normal cells HMEC-tert vs SUM159; format: cell-based; conditions: 0.25-10 μM, 48 hours
Method: Cell viability was evaluated by using the MTT assay in triple replicates in one experiment and repeated for three times. Cancer cells were seeded in 96-well plates at a density of 3,000 cells per well. The cells were incubated at 37° C. for a period of 24 hours. Escalating concentrations of IL-6/gp130 inhibitors were added in triplicate to the plates in the presence of 10% FBS. After incubation for 48 or 72 hours, a stock solution of MTT (0.5 mg/ml) was then added to each well containing the treated cells, followed by incubation at 37° C. for 3 h. After removal of medium, the MTT dye was dissolved with spectrophotometric grade DMSO and the absorbance was read at 570 nm. The IC50 value is determined by interpolation based on the absorbance value halfway between positive and negative controls. In the experiment of LLM4 showing higher efficacy in cancer cells with higher levels of IL-6, instead of using medium with 10% FBS, DMEM with 0% FBS was used in order to eliminate the influence of trace amounts of growth factors and cytokines in FBS.
To examine whether the novel compounds show cytotoxicity to normal cells, cell viability was also measured when the normal cell line tert-immortalized human mammaryepithelial cells (HMEC-tert) [Yang H, Pinello C E, Luo J, et al. Small-molecule inhibitors of acetyltransferase p300 identified by high-throughput screening are potent anticancer agents. […]

gp130-D1-D3 = target: T1, gp130-D1-D3 (Homo sapiens, UniProt P40189); experiment: SPR direct binding to immobilized gp130-D1-D3 (CM5 chip); conditions: for Kd: SPR, gp130-D1-D3, linear regression at low concentrations, 25% Rmax; for ΔGexp: experimental binding energy from SPR KD
T1 construct: residues 1-301, the numbering system is based on PDB 3L5H, which is the mature form of gp130; tandem TFH purification tag (includes FLAG, as purified on anti-FLAG M2 agarose) (C); made in house; host or cells: Hi5 insect cells (baculovirus; virus generated in sf9)
T1 sequence (P40189 23-323): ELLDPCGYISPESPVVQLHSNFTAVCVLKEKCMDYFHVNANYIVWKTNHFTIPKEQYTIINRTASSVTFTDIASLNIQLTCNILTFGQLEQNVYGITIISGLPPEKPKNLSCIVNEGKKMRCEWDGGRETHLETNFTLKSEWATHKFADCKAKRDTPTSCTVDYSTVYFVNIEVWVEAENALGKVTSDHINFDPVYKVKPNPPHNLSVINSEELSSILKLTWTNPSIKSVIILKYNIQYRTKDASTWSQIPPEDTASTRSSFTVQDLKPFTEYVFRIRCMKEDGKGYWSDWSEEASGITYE

Row | Structure (SMILES) | effect on IL-4 induced STAT6 phosphorylation ([1]; 15 μM) | effect on INF-γ induced STAT1 phosphorylation ([2]; 15 μM) | LIF induced STAT3 phosphorylation ([3]; MCF7, 15 μM, 2, 3 and 4 hours) | OSM induced STAT3 phosphorylation ([4]; MCF7, 15 μM, 2, 3 and 4 hours) | differential cytotoxic effects to HMEC-tert and SUM159 cells [5] | Kd (gp130-D1-D3) [µM] | ΔGexp (gp130-D1-D3) [kcal/mol] | effect on STAT6 phosphorylation [1] | effect on STAT1 phosphorylation [2] | inhibition of LIF induced STAT3 phosphorylation ([3]; MCF7, 4 μM) | inhibition of OSM induced STAT3 phosphorylation ([4]; MCF7, 4 μM)
1 | O=C(Nc1cc(F)ccc1-n1cccc1)c1ccc(OCCCN2CCCCC2)cc1 [LLM4, N-(5-fluoro-2-(1H-pyrrol-1-yl)phenyl)-4-(3-(piperidin-1-yl)propoxy)benzamide] | no effect | no effect | remain intact | remain intact | – | – | – | – | – | – | –
2 | O=C(Nc1cccc(OCCN2CCCCC2)c1)Nc1cccc(-c2ccn[nH]2)c1 [LLM414, 1-(3-(1H-pyrazol-5-yl)phenyl)-3-(3-(2-(piperidin-1-yl)ethoxy)phenyl)urea] | – | – | – | – | selectively kill cancer cells | 15.6 | -6.55 | – | – | – | –
3 | O=C(Nc1ccccc1-c1ccn[nH]1)c1ccc(OCCN2CCCCC2)cc1 [LLM418, N-(2-(1H-pyrazol-5-yl)phenyl)-4-(2-(piperidin-1-yl)ethoxy)benzamide] | – | – | – | – | selectively kill cancer cells | 20.5 | -6.39 | little effect | little effect | very little inhibitory effect | very little inhibitory effect
